Test results: the supplement of paper PMC10307832

Legend:
Experiment in all cases: relative viability (nuclei count vs DMSO), 5 days (fraction); higher = more cells survive
Linifanib + Olaparib = compound: Cc1ccc(F)c(NC(=O)Nc2ccc(-c3cccc4[nH]nc(N)c34)cc2)c1 [Linifanib] + O=C(c1cc(Cc2n[nH]c(=O)c3ccccc23)ccc1F)N1CCN(C(=O)C2CC2)CC1 [Olaparib] (partner 8 µM)
Summary of the method: (§1)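 Cells from lung cancer lines were seeded into 1536-well plates and, one day later, dosed by pin tool. Treatments were either a single drug or a fixed dose of an anchor drug with five library-drug doses (not always all listed) in √10 steps. After 5 days, nuclei were stained in a one-step fixation (final 0.05% Triton X-100, 1% formaldehyde, 1 ug/ml Hoechst) and counted on 4× images, and relative viability is the treated-to-vehicle nuclei ratio, as the median of duplicate plates.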

Linifanib + Alpelisib = compound: Cc1ccc(F)c(NC(=O)Nc2ccc(-c3cccc4[nH]nc(N)c34)cc2)c1 [Linifanib] + Cc1nc(NC(=O)N2CCC[C@H]2C(N)=O)sc1-c1ccnc(C(C)(C)C(F)(F)F)c1 [Alpelisib] (partner 2 µM)
Summary of the method: as §1

Linifanib + AZD7762 = compound: Cc1ccc(F)c(NC(=O)Nc2ccc(-c3cccc4[nH]nc(N)c34)cc2)c1 [Linifanib] + NC(=O)Nc1cc(-c2cccc(F)c2)sc1C(=O)N[C@H]1CCCNC1 [AZD7762] (partner 0.2 µM)
Summary of the method: as §1

Linifanib + Crizotinib = compound: Cc1ccc(F)c(NC(=O)Nc2ccc(-c3cccc4[nH]nc(N)c34)cc2)c1 [Linifanib] + C[C@@H](Oc1cc(-c2cnn(C3CCNCC3)c2)cnc1N)c1c(Cl)ccc(F)c1Cl [Crizotinib] (partner 1 µM)
Summary of the method: as §1

Linifanib + Phenformin = compound: Cc1ccc(F)c(NC(=O)Nc2ccc(-c3cccc4[nH]nc(N)c34)cc2)c1 [Linifanib] + N=C(N)NC(=N)NCCc1ccccc1 [Phenformin] (partner 250 µM)
Summary of the method: as §1

Linifanib = compound: Cc1ccc(F)c(NC(=O)Nc2ccc(-c3cccc4[nH]nc(N)c34)cc2)c1 [Linifanib]
Summary of the method: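 Viability here means nuclei in treated wells divided by nuclei in vehicle wells, reported as the median across plates. Only plates with control CV below 25% and at least one doubling passed. Lung cancer cell lines in 1536-well plates were exposed to five √10-spaced library-drug doses for 5 days and counted from 4× Hoechst images in MetaXpress.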

Row | Cell Line | relative viability (Linifanib + Olaparib; first compound 0.03162 µM) | relative viability (Linifanib + Olaparib; first compound 0.1 µM) | relative viability (Linifanib + Olaparib; first compound 0.3162 µM) | relative viability (Linifanib + Alpelisib; first compound 0.03162 µM) | relative viability (Linifanib + Alpelisib; first compound 0.1 µM) | relative viability (Linifanib + Alpelisib; first compound 0.3162 µM) | relative viability (Linifanib + AZD7762; first compound 0.03162 µM) | relative viability (Linifanib + AZD7762; first compound 0.1 µM) | relative viability (Linifanib + AZD7762; first compound 0.3162 µM) | relative viability (Linifanib + Crizotinib; first compound 0.03162 µM) | relative viability (Linifanib + Crizotinib; first compound 0.1 µM) | relative viability (Linifanib + Crizotinib; first compound 0.3162 µM) | relative viability (Linifanib + Phenformin; first compound 0.03162 µM) | relative viability (Linifanib + Phenformin; first compound 0.1 µM) | relative viability (Linifanib + Phenformin; first compound 0.3162 µM) | relative viability (Linifanib; 0.03162 µM) | relative viability (Linifanib; 0.1 µM) | relative viability (Linifanib; 0.3162 µM)
1 | 201T | 0.839 | 0.825 | 0.842 | 1 | 1.06 | 0.978 | 0.603 | 0.606 | 0.654 | 0.999 | 1.02 | 1.04 | 0.503 | 0.473 | 0.422 | 1 | 0.992 | 0.982
2 | A-427 | 0.722 | 0.766 | 0.732 | 1.13 | 1.16 | 1.09 | 0.735 | 0.823 | 0.779 | 0.964 | 0.983 | 0.83 | 0.346 | 0.428 | 0.294 | 1.05 | 1.07 | 0.989
3 | ABC-1 | 0.765 | 0.725 | 0.681 | 0.928 | 1.05 | 0.927 | 0.869 | – | 0.767 | 1.28 | 1.27 | 0.996 | 0.271 | 0.234 | 0.24 | 1.03 | 0.842 | 0.672
4 | BEN | 1.11 | 0.942 | 0.985 | 0.963 | 1.11 | 0.992 | 0.693 | 0.78 | 0.764 | 0.897 | 0.924 | 0.791 | 0.252 | 0.245 | 0.243 | 0.888 | 1.16 | 0.915
5 | CAL-12T | 0.642 | 0.703 | 0.702 | 1.27 | 1.3 | 1.28 | 0.623 | 0.661 | 0.588 | 0.835 | 0.692 | 0.698 | 0.636 | 0.617 | 0.458 | 1.15 | 0.99 | 0.9
6 | COR-L23 | 0.337 | 0.384 | 0.302 | 0.81 | 0.957 | 0.732 | – | – | – | 0.716 | 0.657 | 0.531 | 0.464 | 0.431 | 0.399 | 1.1 | 1.11 | 1
7 | COR-L 105 | 0.66 | 0.584 | 0.754 | 1 | 1.02 | 1.01 | – | – | – | 0.796 | 0.941 | 0.797 | 0.577 | 0.548 | 0.465 | 0.975 | 0.97 | 0.904
8 | ChaGo-K-1 | 0.456 | 0.445 | 0.448 | – | – | – | 0.881 | 0.881 | 0.925 | 1.13 | 1.14 | 1.08 | 0.488 | 0.581 | 0.478 | 1.07 | 1.01 | 0.983
9 | EKVX | 0.953 | 0.868 | 0.914 | 0.9 | 1.14 | 0.831 | 0.78 | 0.873 | 0.808 | 0.939 | 1.01 | 0.875 | 0.241 | 0.25 | 0.194 | 0.982 | 1.01 | 0.91
10 | EMC-BAC-2 | 0.508 | 0.498 | 0.487 | 0.778 | 0.792 | 0.683 | 1.18 | 1.21 | 1.09 | 0.837 | 0.791 | 0.733 | 0.625 | 0.582 | 0.544 | 1.07 | 1.03 | 0.965
11 | EPLC-272H | 0.728 | 1.05 | 0.722 | 0.75 | 1.02 | 0.909 | 0.226 | 0.448 | 0.205 | 0.813 | 0.913 | 0.826 | 0.298 | 0.318 | 0.325 | 0.883 | 1.23 | 0.884
12 | H3255 | 0.619 | 0.567 | 0.574 | 0.752 | 0.787 | 0.706 | 0.868 | 0.925 | 0.853 | 0.865 | 0.892 | 0.85 | 0.345 | 0.203 | 0.438 | 1.04 | 1.01 | 1.02
13 | HARA | 0.855 | 0.837 | 0.745 | 0.864 | 0.983 | 0.756 | 0.402 | 0.445 | 0.387 | 1.09 | 1.18 | 0.975 | 0.446 | 0.539 | 0.476 | 0.926 | 1.04 | 0.907
14 | HCC-15 | 0.827 | 0.772 | 0.706 | 0.881 | 0.941 | 0.887 | 0.922 | 1.18 | 1.12 | 0.855 | 0.86 | 0.779 | 0.501 | 0.567 | 0.479 | 1.08 | 1.05 | 0.939
15 | HCC-44 | 1.02 | 0.916 | 0.952 | 0.82 | 0.824 | 0.793 | 1.09 | 0.914 | 1.04 | 0.839 | 0.831 | 0.733 | 0.29 | 0.195 | 0.248 | 1.05 | 0.95 | 0.944
16 | HCC-78 | 0.946 | 0.77 | 0.943 | 0.339 | 0.357 | 0.363 | 0.629 | 0.595 | 0.599 | 0.373 | 0.376 | 0.319 | 0.675 | 0.761 | 0.686 | 0.99 | 1.17 | 0.885
17 | HCC-366 | 0.337 | 0.458 | 0.323 | 0.533 | 0.664 | 0.357 | 0.181 | 0.243 | 0.221 | 0.558 | 0.69 | 0.454 | 0.575 | 0.62 | 0.635 | 1.06 | 1.05 | 0.949
